Results from US11229623B2 (GlaxoSmithKline Intellectual Property (No.2) Limited, priority 2016, dated 2022).

Target: T1, human TRPV4 (Homo sapiens, UniProt Q9HBA0)
T1 construct: expressed in transfected cells; host or cells: BHK/AC9 cells transduced with BacMam virus
Assay: FLIPR assay for hTRPV4 expressed in BHK cells: inhibition of Agonist Compound-induced calcium signal
Assay type: cell-based
Conditions: hTRPV4 in BHK/AC9 cells, FLIPR calcium signal, agonist at EC80; reported as range class; read-out: IC50
Outline: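 BHK/AC9 cells transduced with BacMam human TRPV4 (MOI 78), plated 15,000 per well and cultured 24 h at 37° C. Loaded with 2 μM Fluo-4 AM plus 500 μM Brilliant Black in HBSS for 1-1.5 h at room temperature in the dark; intracellular calcium signal read by FLIPR fluorescence.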

T1 sequence (Q9HBA0 whole entry): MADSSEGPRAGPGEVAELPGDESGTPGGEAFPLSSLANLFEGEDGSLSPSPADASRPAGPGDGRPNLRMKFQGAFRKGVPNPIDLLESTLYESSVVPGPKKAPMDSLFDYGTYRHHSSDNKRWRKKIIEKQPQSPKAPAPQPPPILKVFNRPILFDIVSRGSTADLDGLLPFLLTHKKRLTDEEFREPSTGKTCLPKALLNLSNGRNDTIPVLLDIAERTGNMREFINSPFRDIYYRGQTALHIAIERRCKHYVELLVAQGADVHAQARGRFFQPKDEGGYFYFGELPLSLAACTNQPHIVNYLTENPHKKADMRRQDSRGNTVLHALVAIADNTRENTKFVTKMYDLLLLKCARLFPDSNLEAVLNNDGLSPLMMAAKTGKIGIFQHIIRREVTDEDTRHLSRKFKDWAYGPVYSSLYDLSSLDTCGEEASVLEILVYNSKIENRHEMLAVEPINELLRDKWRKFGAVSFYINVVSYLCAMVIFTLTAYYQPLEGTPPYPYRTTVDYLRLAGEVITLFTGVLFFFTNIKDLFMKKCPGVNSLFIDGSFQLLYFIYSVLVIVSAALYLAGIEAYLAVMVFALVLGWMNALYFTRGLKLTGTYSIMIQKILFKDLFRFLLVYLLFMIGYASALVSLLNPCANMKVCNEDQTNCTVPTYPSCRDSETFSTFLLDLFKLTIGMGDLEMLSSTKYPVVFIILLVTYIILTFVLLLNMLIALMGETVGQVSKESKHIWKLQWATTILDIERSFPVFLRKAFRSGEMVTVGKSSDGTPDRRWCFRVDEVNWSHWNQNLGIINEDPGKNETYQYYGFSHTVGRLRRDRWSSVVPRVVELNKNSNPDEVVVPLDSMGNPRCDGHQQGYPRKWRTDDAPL

Question: Which IC50 does the source give for `N#Cc1ccc(O[C@H]2CN(S(=O)(=O)c3ccc(Br)nc3)C[C@@]2(O)CO)cc1F` [Example 99, 4-(((3S,4R)-1-((6-bromopyridin-3-yl)sulfonyl)-4-hydroxy-4-(hydroxymethyl)pyrrolidin-3-yl)oxy)-2-fluorobenzonitrile] here?
Answer: 10 to 100 nM

Question: How did the IC50 turn out when `N#Cc1ccc(O[C@H]2CN(S(=O)(=O)c3ccc(C(F)(F)F)nc3Cl)C[C@@]2(O)CO)cc1F` [Example 100, 4-(((3S,4R)-1-((2-chloro-6-(trifluoromethyl)pyridin-3-yl)sulfonyl)-4-hydroxy-4-(hydroxymethyl)pyrrolidin-3-yl)oxy)-2-fluorobenzonitrile] was run?
Answer: 0.1 to 10 nM

Question: For `N#Cc1ccc(O[C@H]2CN(S(=O)(=O)c3ccc(Cl)cc3)C[C@@]2(O)CO)cc1F` [Example 101, 4-(((3S,4R)-1-((4-chlorophenyl)sulfonyl)-4-hydroxy-4-(hydroxymethyl)pyrrolidin-3-yl)oxy)-2-fluorobenzonitrile], which IC50 is on record?
Answer: 10 to 100 nM

Question: `N#Cc1ccc(O[C@H]2CN(S(=O)(=O)c3ccc(Br)cc3)C[C@@]2(O)CO)cc1F` [Example 102, 4-(((3S,4R)-1-((4-bromophenyl)sulfonyl)-4-hydroxy-4-(hydroxymethyl)pyrrolidin-3-yl)oxy)-2-fluorobenzonitrile] was tested. Which IC50 did it give?
Answer: 10 to 100 nM

Question: `N#Cc1ccc(O[C@H]2CN(S(=O)(=O)c3ccc(I)cc3)C[C@@]2(O)CO)cc1F` [Example 103, 2-fluoro-4-(((3S,4R)-4-hydroxy-4-(hydroxymethyl)-1-((4-iodophenyl)sulfonyl)pyrrolidin-3-yl)oxy)benzonitrile] was tested. Which IC50 did it give?
Answer: 10 to 100 nM

Question: How did the IC50 turn out when `COc1cc(C#N)ccc1S(=O)(=O)N1C[C@H](Oc2ccc(C#N)c(F)c2)[C@](O)(CO)C1` [Example 104, 4-(((3S,4R)-1-((4-cyano-2-methoxyphenyl)sulfonyl)-4-hydroxy-4-(hydroxymethyl)pyrrolidin-3-yl)oxy)-2-fluorobenzonitrile] was run?
Answer: 10 to 100 nM

Question: Which IC50 does the source give for `N#Cc1ccc(O[C@H]2CN(S(=O)(=O)c3ccc(Br)cn3)C[C@@]2(O)CO)cc1F` [Example 105, 4-(((3S,4R)-1-((5-bromopyridin-2-yl)sulfonyl)-4-hydroxy-4-(hydroxymethyl)pyrrolidin-3-yl)oxy)-2-fluorobenzonitrile] here?
Answer: 10 to 100 nM

Question: With `N#Cc1ccc(S(=O)(=O)N2C[C@H](Oc3ccc(Cl)cc3)[C@](O)(CO)C2)c(Cl)c1` [Example 106, 3-chloro-4-(((3R,4S)-4-(4-chlorophenoxy)-3-hydroxy-3-(hydroxymethyl)pyrrolidin-1-yl)sulfonyl)benzonitrile] as the molecule, how does the IC50 read?
Answer: 0.1 to 10 nM

Question: `N#Cc1ccccc1S(=O)(=O)N1C[C@H](Oc2ccc(Cl)cc2)[C@](O)(CO)C1` [Example 107, 2-(((3R,4S)-4-(4-chlorophenoxy)-3-hydroxy-3-(hydroxymethyl)pyrrolidin-1-yl)sulfonyl)benzonitrile] was tested. Which IC50 did it give?
Answer: 10 to 100 nM

Question: For `N#Cc1ccc(S(=O)(=O)N2C[C@H](Oc3ccc(Cl)cc3)[C@](O)(CO)C2)c(Br)c1` [Example 108, 3-bromo-4-(((3R,4S)-4-(4-chlorophenoxy)-3-hydroxy-3-(hydroxymethyl)pyrrolidin-1-yl)sulfonyl)benzonitrile], which IC50 is on record?
Answer: 0.1 to 10 nM

Question: `N#Cc1ccc(S(=O)(=O)N2C[C@H](Oc3ccc(Cl)cc3)[C@](O)(CO)C2)cn1` [Example 109, 5-(((3R,4S)-4-(4-chlorophenoxy)-3-hydroxy-3-(hydroxymethyl)pyrrolidin-1-yl)sulfonyl)picolinonitrile] was tested. Which IC50 did it give?
Answer: 10 to 100 nM

Question: With `N#Cc1ncccc1S(=O)(=O)N1C[C@H](Oc2ccc(Cl)cc2)[C@](O)(CO)C1` [Example 110, 3-(((3R,4S)-4-(4-chlorophenoxy)-3-hydroxy-3-(hydroxymethyl)pyrrolidin-1-yl)sulfonyl)picolinonitrile] as the molecule, how does the IC50 read?
Answer: 10 to 100 nM

Question: For `N#Cc1ccc(O[C@H]2CN(S(=O)(=O)c3ccc(CC(F)(F)F)cc3)C[C@@]2(O)CO)cc1F` [Example 111, 2-fluoro-4-(((3S,4R)-4-hydroxy-4-(hydroxymethyl)-1-((4-(2,2,2-trifluoroethyl)phenyl)sulfonyl)pyrrolidin-3-yl)oxy)benzonitrile], which IC50 is on record?
Answer: 10 to 100 nM

Question: `N#Cc1ccc(O[C@H]2CN(S(=O)(=O)c3ccc(C(F)(F)F)s3)C[C@@]2(O)CO)cc1F` [Example 112, 2-fluoro-4-(((3S,4R)-4-hydroxy-4-(hydroxymethyl)-1-((5-(trifluoromethyl)thiophen-2-yl)sulfonyl)pyrrolidin-3-yl)oxy)benzonitrile] was tested. Which IC50 did it give?
Answer: 10 to 100 nM

Question: With `N#Cc1ccc(S(=O)(=O)N2C[C@H](Oc3ccc(C#N)c(F)c3)[C@](O)(CO)C2)c(F)c1` [Example 113, 4-(((3S,4R)-1-((4-cyano-2-fluorophenyl)sulfonyl)-4-hydroxy-4-(hydroxymethyl)pyrrolidin-3-yl)oxy)-2-fluorobenzonitrile] as the molecule, how does the IC50 read?
Answer: 0.1 to 10 nM

Question: How did the IC50 turn out when `N#Cc1ccc(O[C@H]2CN(S(=O)(=O)c3ccc(I)cc3C#N)C[C@@]2(O)CO)cc1F` [Example 114, 4-(((3S,4R)-1-((2-cyano-4-iodophenyl)sulfonyl)-4-hydroxy-4-(hydroxymethyl)pyrrolidin-3-yl)oxy)-2-fluorobenzonitrile] was run?
Answer: 0.1 to 10 nM

Question: Which IC50 does the source give for `N#Cc1ccc(O[C@H]2CN(S(=O)(=O)c3ccc(I)cc3Cl)C[C@@]2(O)CO)cc1F` [Example 115, 4-(((3S,4R)-1-((2-chloro-4-iodophenyl)sulfonyl)-4-hydroxy-4-(hydroxymethyl)pyrrolidin-3-yl)oxy)-2-fluorobenzonitrile] here?
Answer: 0.1 to 10 nM

Question: How did the IC50 turn out when `N#Cc1ccc(O[C@H]2CN(S(=O)(=O)c3ccc(C(F)(F)F)c(F)c3)C[C@@]2(O)CO)cc1F` [Example 116, 2-fluoro-4-(((3S,4R)-1-((3-fluoro-4-(trifluoromethyl)phenyl)sulfonyl)-4-hydroxy-4-(hydroxymethyl)pyrrolidin-3-yl)oxy)benzonitrile] was run?
Answer: 10 to 100 nM

Question: Which IC50 does the source give for `N#Cc1ccc(O[C@H]2CN(S(=O)(=O)c3ccccc3Br)C[C@@]2(O)CO)cc1F` [Example 117, 4-(((3S,4R)-1-((2-bromophenyl)sulfonyl)-4-hydroxy-4-(hydroxymethyl)pyrrolidin-3-yl)oxy)-2-fluorobenzonitrile] here?
Answer: 10 to 100 nM

Question: How did the IC50 turn out when `Cc1ccc(S(=O)(=O)N2C[C@H](Oc3ccc(C#N)c(F)c3)[C@](O)(CO)C2)cc1F` [Example 118, 2-fluoro-4-(((3S,4R)-1-((3-fluoro-4-methylphenyl)sulfonyl)-4-hydroxy-4-(hydroxymethyl)pyrrolidin-3-yl)oxy)benzonitrile] was run?
Answer: 10 to 100 nM

Question: With `N#Cc1ccc(O[C@H]2CN(S(=O)(=O)c3ccccc3I)C[C@@]2(O)CO)cc1F` [Example 119, 2-fluoro-4-(((3S,4R)-4-hydroxy-4-(hydroxymethyl)-1-((2-iodophenyl)sulfonyl)pyrrolidin-3-yl)oxy)benzonitrile] as the molecule, how does the IC50 read?
Answer: 0.1 to 10 nM

Question: Which IC50 does the source give for `N#Cc1ccc(O[C@H]2CN(S(=O)(=O)c3ccc(Cl)cc3Br)C[C@@]2(O)CO)cc1F` [Example 120, 4-(((3S,4R)-1-((2-bromo-4-chlorophenyl)sulfonyl)-4-hydroxy-4-(hydroxymethyl)pyrrolidin-3-yl)oxy)-2-fluorobenzonitrile] here?
Answer: 0.1 to 10 nM

Question: For `N#Cc1ccc(O[C@H]2CN(S(=O)(=O)c3ccc(Br)cc3C(F)(F)F)C[C@@]2(O)CO)cc1F` [Example 121, 4-(((3S,4R)-1-((4-bromo-2-(trifluoromethyl)phenyl)sulfonyl)-4-hydroxy-4-(hydroxymethyl)pyrrolidin-3-yl)oxy)-2-fluorobenzonitrile], which IC50 is on record?
Answer: 10 to 100 nM
